Results on 89 compounds are retold here after a melting point compilation (Tetko et al.; mined from patent text by program, amines drawn as free bases though some values may be those of a salt).

Bounds are passed on as bounds.

For orientation: melting point means the temperature, or range, at which the solid turns liquid. For the compound `NCCCCNC(=O)C(=O)NCCCCN`, the melting point lay within 106 to 108 °C. Take `CCCCCCCCCC(=O)Oc1ccc2c(N3CCN(CCCC(=O)c4ccc(F)cc4)CC3)noc2c1`: the melting point was 69 to 71 °C.

Compound `CC(C)CC(C(=O)O)N(C)C(C)C` (centres undefined) returned a melting point of 159 to 160 °C. `COc1ccc(C(O)COc2ccc(C(=O)O)c(O)c2)cc1C12CC3CC(CC(C3)C1)C2` (centres undefined) registered a melting point of 178 to 179 °C. On to `CC(C)C1(C)N=C(c2cc3c(nc2C(=O)O)COC3)NC1=O` (centres undefined), for which the melting point lay in the range of 115 to 118 °C.

With `O=C1N(Cc2ccc(F)cc2Cl)c2ccccc2C12COc1cc3c(cc12)OCO3` (centres undefined), the melting point was in the range of 174 to 175 °C.

With `CC(=O)NC[C@H]1CN(c2ccc(C3CCN(c4nnc(C)s4)CC3)c(F)c2)C(=O)O1`, the melting point was in the range of 193 to 195 °C. Then `CS(=O)(=O)c1ccc(Oc2ccc([N+](=O)[O-])c(OCc3ccccc3)c2)cc1`, with 142 to 143 °C.

`O=C1Nc2ccc(S(=O)(=O)N3CCC[C@H]3COc3ccccc3)cc2C1=O` had a melting point of 204 to 206 °C. For `C(=C1CNCCN1)c1ccccc1`, the melting point fell in the range of 80 to 81 °C. As to `C[C@H](C#Cc1ccc(COCc2ccc(F)cc2)s1)N(O)C(N)=O`, the melting point was in the range of 90 to 91 °C. Then `CCc1ccc(Nc2nc3cc(NC(=O)c4ccc([N+](=O)[O-])cc4Cl)ccc3o2)cc1`, with greater than 250 °C.

In turn, `O=c1[nH]nc(CCCN2CCN(c3cccc(Cl)c3)CC2)n1CCOc1ccccc1` returned a melting point of 150 to 153 °C. In turn, `COc1nc2ccccc2cc1NC(=O)N1CCN(c2cc(F)cc(F)c2)CC1` yielded a melting point of 158 to 159 °C. Then `CC(C)(C)Nc1c(NCc2cc3cc(C#N)ccc3o2)c(=O)c1=O`, with 299 to 300 °C. Compound `CC(=O)Nc1cc(N2CCN(C(=O)OC(C)(C)C)CC2)ccc1S(=O)(=O)c1ccccc1` came in with a melting point of 129 to 130 °C. `OC[C@@H]1Cc2cc3ccccc3n2C[C@H]1CO` (relative stereo): the melting point was 162 to 163 °C. `OC(CCl)(Cc1c(Cl)cccc1Cl)c1ccc(Cl)cc1Cl` (centres undefined) came in with a melting point of 117 °C.

Compound `O=C(NC1CCN(CCCOc2ccccc2C(=O)Nc2nnn[nH]2)CC1)c1ccccc1` gave a melting point of 259 to 260 °C. With `COC(=O)C(C)c1ccc2nc3ccc(Cl)cn3c(=O)c2c1` (centres undefined), the melting point was found to be 173 °C. For `S=C(NCCCCN(Cc1ccc(Cl)c(Cl)c1)c1ccc(Br)cn1)NCCCc1c[nH]cn1`, the melting point was 63 to 67 °C. `CS(=O)(=O)N(CCc1ccccc1)Cc1cccnc1`: the melting point lay in the range of 94 to 95 °C. As to `O=C(O)c1cccc2[nH]nnc12`, the melting point lay within 250 to 252 °C.

The compound `COc1cc2c(c(Cl)c1Cl)CCCC2=O` gave a melting point of 150 to 151 °C. In turn, `CC1(C)CON(Cc2ccc(N)cc2Br)C1=O` showed a melting point of 109 to 111 °C.

Compound `CCOP(=O)(COc1ccc(-c2c3ccccc3cc3sc4ccccc4c23)cc1)OCC` gave a melting point of 129 to 130 °C. On to `CCOC(=O)C(=CNc1csnn1)C(=O)c1cc(F)c(F)cc1F`, for which the melting point lay in the range of 104 to 106 °C. The compound `O=C(O)[C@H](Cc1ccc(OCc2ccccc2)cc1)NS(=O)(=O)c1ccc(F)cc1` gave a melting point of 138 to 139 °C.

As to `OC1=Cc2ccccc2C=Cc2ccccc21`, the melting point is 120 to 121 °C. Take `N#Cc1ccc(CC23CCCN2C(=O)N(Cc2cc(Cl)cc(Cl)c2)C3=O)cc1` (centres undefined): the melting point stood at 124 °C. `CCNC(=O)c1c([Si](C)(C)C)ccc(C#C[Si](C)(C)C)c1Cl` came in with a melting point of 131 to 132 °C. Then `CCn1cc(C(=O)O)c(=O)c2cc(F)c(N3CCC(CNC(C)C)C3)nc21` (centres undefined), with 302 to 304 °C; and `CCN(CC)C(=O)c1sc(Cl)nc1C(F)(F)F`, with 40 to 41 °C; and `CON(C(=O)c1cn(C)nc1C(F)F)C(C)c1cccc(-c2ccc(Cl)c(Cl)c2)c1` (centres undefined), with 162 to 164 °C. In turn, `O=C(O)COC1(Cl)C=C2ONC(c3ccccc3F)=C2C(Cl)=C1Cl` (centres undefined) registered a melting point of 222 to 224 °C. Consider `CC(CCCCc1ccccc1)c1cc(O)c2c(c1)OC(C)(C)C1CCC(=O)C=C21` (centres undefined), for which the melting point lay in the range of 204 to 208 °C.

`CS(=O)(=O)c1ccc(/C=C/c2cc(/C=C/c3ccc4cc[nH]c4c3)n[nH]2)cc1` displayed a melting point of 260 to 268 °C. Compound `C=CCc1ccc2c(c1)CCC2O` (centres undefined) displayed a melting point of 54 °C. The compound `O=C1c2ccccc2C(=O)N1OCc1c(Cl)cccc1Cl` returned a melting point of 201 to 206 °C.

As to `Cc1nc(N)ccc1NC(=NC#N)Oc1ccccc1`, the melting point was in the range of 189 to 190 °C. In the case of `CC(=O)Nc1ccc(C(=O)Nc2ccccc2NC(=O)CN)cc1`, the melting point lay in the range of 215 to 218 °C.

With `COC(=O)c1ccc(-c2nc(-c3ccccc3)co2)cc1`, the melting point is 175 to 176 °C. Then `OCCCN1CCC(c2ccccc2)(c2ccccc2)CC1`, with 97 °C. Consider `NCCNC(=O)CNC(=O)Cc1ccccc1`, for which the melting point lay in the range of 132 to 137 °C.

Regarding `Cc1c(CO)c2ccc(OCCCN3CCN(Cc4ccc(Cl)cc4)CC3)cc2oc1=O`, the melting point is 135 °C. Compound `COc1cc2cc(CO)c(CO)c(-c3ccnc(Nc4ccccc4C(CO)CCO)c3)c2cc1OC` (centres undefined) yielded a melting point of 204 to 207 °C.

On to `CCSC1c2cccc(O)c2C(=O)c2c(O)cccc21`, for which the melting point is 117 to 118 °C. As for `COc1cn(-c2ccc(-n3cccn3)cc2F)nc(-c2ccnn2-c2ccccc2F)c1=O`, the melting point lay within 202 to 206 °C. Turning to `COc1ccc(/C=C/c2ccc3cc(C(=O)O)ccc3n2)cc1`, the melting point lay in the range of 274 to 277 °C.

In turn, `CCCCOCCOc1ccc(-c2ccc3c(c2)C=C(C(=O)O)CCN3c2ccc(S(=O)(=O)N(C)C)cc2)cc1` yielded a melting point of 236 to 238 °C. The compound `O=C1CN2CCOC2(c2ccccc2F)c2cc(I)ccc2N1CCO` (centres undefined) gave a melting point of 160 to 165 °C. Take `Cn1cc(C(=O)NCc2ccc(Cl)cc2)c(=O)c2cc(CO)cc(I)c21`: the melting point was 242 to 244 °C. `c1ccc(Sc2ccc(-c3ccccc3)s2)cc1` registered a melting point of 72.5 to 74.5 °C. `CC1CCc2cccc3c2N1C(=O)C3=O` (centres undefined): the melting point lay within 241 to 243 °C. `Cn1cc(C2=C(c3c4n(c5ccccc35)CCC4)C(=O)OC2=O)c2ccccc21` had a melting point of 125 to 130 °C. Take `Cn1nnc2cc(C(O)c3ccccc3)ccc21` (centres undefined): the melting point was 129 °C. `CCCN1CCC(n2nc(-c3c(-c4ccccc4)nn4ccccc34)ccc2=O)CC1`: the melting point was 104 to 106 °C. Turning to `O=S1(=O)N=CN(CCF)c2cc(Cl)c(Cl)cc21`, the melting point lay in the range of 233 to 234 °C. `C=CCN(NC(=O)c1ccc(Cl)c(S(N)(=O)=O)c1)c1ccccc1` returned a melting point of 99 to 101 °C. In turn, `CC1(O)CC2(C)C(=O)CCC2C2CCC3=CC(=O)CCC3(C)C21` (centres undefined) returned a melting point of 150 to 151 °C. Compound `O=C1NCCN1S(=O)(=O)N1CCCCC1` had a melting point of 201 °C. Turning to `Cc1nc(-c2ccccc2)nc(-c2ccc(O)c(N)c2)c1C(=O)N1CCN(C)CC1`, the melting point is 129 to 131 °C. Take `Cc1ccc(Cc2cnc(NCCCCc3ncc([N+](=O)[O-])cc3C)[nH]c2=O)cn1`: the melting point lay in the range of 141 to 142 °C.

`Nc1cc(C(=O)O)cc(S(N)(=O)=O)c1Oc1ccccc1` displayed a melting point of 252 to 253 °C. Then `CC1CN(c2c(F)cc3c(=O)c(C(=O)O)cn4c3c2CC4C)CC(C)N1C` (single isomer, unassigned; (+)), with 204 to 206 °C.

Compound `O=C(CCl)Nc1ccc2c(c1NC(=O)c1ccccc1)C(=O)c1ccccc1C2=O` showed a melting point of 203 to 204 °C. `CN=C1c2ccccc2CCc2ccccc21` registered a melting point of 89 to 90 °C. In turn, `CC(C)(C)OC(=O)C[C@@H]1C[C@@H](COS(C)(=O)=O)NC1=O` had a melting point of 114 to 116 °C. Consider `CCOC(=O)c1ocnc1C`, for which the melting point lay in the range of 31 to 33 °C. `Cc1nc(N2CCc3ccccc3CC2)c(C#N)c(=O)n1CCO` gave a melting point of 164 to 168 °C.

`Cc1c(F)cccc1N1CC(C(=O)O)CC1=O` (centres undefined) registered a melting point of 155 to 160 °C. In turn, `CCn1cc(C2(c3cccc(-c4cccnc4F)c3)N=C(N)N(C)C2=O)cc1C=O` (centres undefined) came in with a melting point of 152 to 156 °C.

In the case of `COc1ccc(CCNC(=O)N(O)C(C)C)cc1OC`, the melting point is 113 to 114 °C.

`Oc1ccc(C=C(Cl)Cl)cc1` gave a melting point of 90 to 91 °C. `Cc1ccc(Sc2c(SCc3ccccc3)cc(C(=O)O)cc2S(=O)(=O)Cl)cc1`: the melting point lay within 188 to 190 °C. On to `O=C1Cc2cccc(Nc3ccc(Cl)cc3)c2N1`, for which the melting point lay in the range of 190 to 192 °C. For the compound `O=C(/C=C/c1ccc(C(=O)Nc2cccc(Nc3nc(-c4cccnc4)cs3)c2)s1)NOC1CCCCO1` (centres undefined), the melting point stood at 170 °C. `COc1cc(Cn2c(-c3ccc(OCc4ccccc4)cc3)c(C)c3cc(OCc4ccccc4)ccc32)ccc1OCCBr` returned a melting point of 150 to 152 °C.

In turn, `CCOC(=O)C(C)(C)Oc1ccc(CCNC(=O)C(C)(C)Oc2cccc(OC)c2)cc1` had a melting point of 68 to 69 °C. Then `Cc1cccc(NS(=O)(=O)c2ccc(N3CCNC3=O)cc2)c1`, with 188 to 190 °C; and `Cc1ccc2cccc(OCc3c(Cl)ccc(S(=O)(=O)N4CCC[C@H]4C(=O)NCCCNC(=O)c4ccc(C#N)cc4)c3Cl)c2n1`, with 78 to 80 °C; and `NS(=O)(=O)c1ccc(-c2coc(=O)n2-c2ccc(F)cc2)cc1`, with 211 to 213 °C. The compound `COc1ccc(C2CCN(c3c(C)c(C)c4c(c3C)C(O)C(C)(C)O4)CC2)cc1OC` (centres undefined) gave a melting point of 140 to 142 °C. Then `CSC1=C(C#N)C(c2ccc(N(C)C)cc2)(c2cccnc2)C(=O)N1CCCN(C)C` (centres undefined), with 90 to 91 °C. Then `CNC(=NCCSCc1cc(OC)ccn1)NC#N`, with 121 to 122 °C; and `CN1CCOC(CN2C(=O)C3(COc4cc5c(cc43)OCCO5)c3ccccc32)C1` (centres undefined), with 85 to 90 °C; and `C1=C(c2nc3ccccc3o2)CCN(Cc2ccccc2)C1`, with 129 to 130 °C. Then `C#CCOc1cc(-c2ncnc(C(F)(F)F)c2Cl)c(F)cc1Cl`, with 112 to 113 °C.

The compound `Cc1nnc(-c2ccc3occ(-c4ccc(SC(C)C)cc4)c3c2)o1` registered a melting point of 96 to 97 °C.
